Results taken from ChEMBL document CHEMBL1151757, “Synthesis, radiosynthesis, and biological evaluation of fluorine-18-labeled 2beta-carbo(fluoroalkoxy)-3beta-(3'-((Z)-2-haloethenyl)phenyl)nortropanes: candidate radioligands for in vivo imaging of the serotonin transporter with positron emission tomography” (J Med Chem, 2008).

How the values were obtained:
[1] = Ratio of drug uptake in pons to cerebellum in anesthetized cynomolgus monkey after 95 mins postinjection; format: ADME, organism-based, Macaca fascicularis; settings: in vivo
[2] = Ratio of drug uptake in medulla to cerebellum in anesthetized cynomolgus monkey after 165 mins postinjection; format: ADME, organism-based, Macaca fascicularis; settings: in vivo, 2.75 h
[3] = Drug uptake in anesthetized cynomolgus monkey brain occipital lobe after 22.5 mins postinjection; format: ADME, organism-based, Macaca fascicularis; settings: in vivo, 0.375 h
[4] = Drug uptake in anesthetized cynomolgus monkey brain occipital lobe after 27.5 mins postinjection; format: ADME, organism-based, Macaca fascicularis; settings: in vivo
[5] = Drug uptake in anesthetized cynomolgus monkey brain occipital lobe after 35 mins postinjection; format: ADME, organism-based, Macaca fascicularis; settings: in vivo
[6] = Drug uptake in anesthetized cynomolgus monkey brain occipital lobe after 95 mins postinjection; format: ADME, organism-based, Macaca fascicularis; settings: in vivo
[7] = Drug uptake in anesthetized cynomolgus monkey brain occipital lobe after 175 mins postinjection; format: ADME, organism-based, Macaca fascicularis; settings: in vivo
[8] = Drug uptake in anesthetized cynomolgus monkey brain frontal lobe after 18.5 mins postinjection; format: ADME, organism-based, Macaca fascicularis; settings: in vivo
[9] = Drug uptake in anesthetized cynomolgus monkey brain frontal lobe after 95 mins postinjection; format: ADME, organism-based, Macaca fascicularis; settings: in vivo
[10] = Drug uptake in anesthetized cynomolgus monkey brain frontal lobe after 225 mins postinjection; format: ADME, organism-based, Macaca fascicularis; settings: in vivo, 3.75 h
[11] = Ratio of drug uptake in midbrain to cerebellum in anesthetized cynomolgus monkey after 225 mins postinjection; format: ADME, organism-based, Macaca fascicularis; settings: in vivo, 3.75 h
[12] = system: Putamen; assay: Drug uptake in anesthetized cynomolgus monkey brain putamen after 115 mins postinjection; format: ADME, organism-based, Macaca fascicularis; parameters: unit not given here; settings: in vivo
[13] = system: Putamen; assay: Drug uptake in anesthetized cynomolgus monkey brain putamen after 165 mins postinjection; format: ADME, organism-based, Macaca fascicularis; settings: in vivo, 2.75 h
[14] = system: Putamen; assay: Drug uptake in anesthetized cynomolgus monkey brain putamen after 235 mins postinjection; format: ADME, organism-based, Macaca fascicularis; settings: in vivo
[15] = Ratio of drug uptake in frontal lobe to cerebellum in anesthetized cynomolgus monkey after 135 mins postinjection; format: ADME, organism-based, Macaca fascicularis; settings: in vivo, 2.25 h
[16] = system: Midbrain; assay: Drug uptake in anesthetized cynomolgus monkey brain midbrain after 145 mins postinjection; format: ADME, organism-based, Macaca fascicularis; settings: in vivo
[17] = system: Midbrain; assay: Drug uptake in anesthetized cynomolgus monkey brain midbrain after 175 mins postinjection; format: ADME, organism-based, Macaca fascicularis; settings: in vivo
[18] = system: Midbrain; assay: Drug uptake in anesthetized cynomolgus monkey brain midbrain after 215 mins postinjection; format: ADME, organism-based, Macaca fascicularis; settings: in vivo
[19] = system: Pons; assay: Drug uptake in anesthetized cynomolgus monkey brain pons after 1.5 mins postinjection; format: ADME, organism-based, Macaca fascicularis; settings: in vivo, 0.025 h
[20] = system: Pons; assay: Drug uptake in anesthetized cynomolgus monkey brain pons after 6.5 mins postinjection; format: ADME, organism-based, Macaca fascicularis; settings: in vivo
[21] = system: Pons; assay: Drug uptake in anesthetized cynomolgus monkey brain pons after 45 mins postinjection; format: ADME, organism-based, Macaca fascicularis; settings: in vivo, 0.75 h
[22] = system: Pons; assay: Drug uptake in anesthetized cynomolgus monkey brain pons after 85 mins postinjection; format: ADME, organism-based, Macaca fascicularis; settings: in vivo
[23] = system: Pons; assay: Drug uptake in anesthetized cynomolgus monkey brain pons after 125 mins postinjection; format: ADME, organism-based, Macaca fascicularis; settings: in vivo
[24] = system: Pons; assay: Drug uptake in anesthetized cynomolgus monkey brain pons after 165 mins postinjection; format: ADME, organism-based, Macaca fascicularis; settings: in vivo, 2.75 h
[25] = system: Medulla; assay: Drug uptake in anesthetized cynomolgus monkey brain medulla after 6.5 mins postinjection; format: ADME, organism-based, Macaca fascicularis; settings: in vivo
[26] = system: Medulla; assay: Drug uptake in anesthetized cynomolgus monkey brain medulla after 12.5 mins postinjection; format: ADME, organism-based, Macaca fascicularis; settings: in vivo
[27] = system: Medulla; assay: Drug uptake in anesthetized cynomolgus monkey brain medulla after 15.5 mins postinjection; format: ADME, organism-based, Macaca fascicularis; settings: in vivo
[28] = system: Medulla; assay: Drug uptake in anesthetized cynomolgus monkey brain medulla after 22.5 mins postinjection; format: ADME, organism-based, Macaca fascicularis; settings: in vivo, 0.375 h
[29] = system: Medulla; assay: Drug uptake in anesthetized cynomolgus monkey brain medulla after 75 mins postinjection; format: ADME, organism-based, Macaca fascicularis; settings: in vivo, 1.25 h
[30] = Ratio of drug uptake in putamen to cerebellum in anesthetized cynomolgus monkey after 45 mins postinjection; format: ADME, organism-based, Macaca fascicularis; settings: in vivo, 0.75 h
[31] = system: Medulla; assay: Drug uptake in anesthetized cynomolgus monkey brain medulla after 225 mins postinjection; format: ADME, organism-based, Macaca fascicularis; settings: in vivo, 3.75 h
[32] = Drug uptake in anesthetized cynomolgus monkey brain cerebellum after 0.5 mins postinjection; format: ADME, organism-based, Macaca fascicularis; settings: in vivo
[33] = Drug uptake in anesthetized cynomolgus monkey brain cerebellum after 2.5 mins postinjection; format: ADME, organism-based, Macaca fascicularis; settings: in vivo
[34] = Drug uptake in anesthetized cynomolgus monkey brain cerebellum after 12.5 mins postinjection; format: ADME, organism-based, Macaca fascicularis; settings: in vivo
[35] = Drug uptake in anesthetized cynomolgus monkey brain cerebellum after 18.5 mins postinjection; format: ADME, organism-based, Macaca fascicularis; settings: in vivo
[36] = Drug uptake in anesthetized cynomolgus monkey brain cerebellum after 35 mins postinjection; format: ADME, organism-based, Macaca fascicularis; settings: in vivo
[37] = Drug uptake in anesthetized cynomolgus monkey brain cerebellum after 165 mins postinjection; format: ADME, organism-based, Macaca fascicularis; settings: in vivo, 2.75 h
[38] = Ratio of drug uptake in putamen to cerebellum in anesthetized cynomolgus monkey after 215 mins postinjection; format: ADME, organism-based, Macaca fascicularis; settings: in vivo
[39] = Ratio of drug uptake in thalamus to cerebellum in anesthetized cynomolgus monkey after 27.5 mins postinjection; format: ADME, organism-based, Macaca fascicularis; settings: in vivo
[40] = Ratio of drug uptake in thalamus to cerebellum in anesthetized cynomolgus monkey after 115 mins postinjection; format: ADME, organism-based, Macaca fascicularis; settings: in vivo
[41] = system: Caudate; assay: Drug uptake in anesthetized cynomolgus monkey brain caudate after 4.5 mins postinjection; format: ADME, organism-based, Macaca fascicularis, Caudate nucleus; settings: in vivo, 0.075 h
[42] = system: Caudate; assay: Drug uptake in anesthetized cynomolgus monkey brain caudate after 15.5 mins postinjection; format: ADME, organism-based, Macaca fascicularis, Caudate nucleus; settings: in vivo
[43] = system: Caudate; assay: Drug uptake in anesthetized cynomolgus monkey brain caudate after 45 mins postinjection; format: ADME, organism-based, Macaca fascicularis, Caudate nucleus; settings: in vivo, 0.75 h
[44] = system: Caudate; assay: Drug uptake in anesthetized cynomolgus monkey brain caudate after 165 mins postinjection; format: ADME, organism-based, Macaca fascicularis, Caudate nucleus; settings: in vivo, 2.75 h
[45] = system: Caudate; assay: Drug uptake in anesthetized cynomolgus monkey brain caudate after 215 mins postinjection; format: ADME, organism-based, Macaca fascicularis, Caudate nucleus; settings: in vivo
[46] = system: Caudate; assay: Drug uptake in anesthetized cynomolgus monkey brain caudate after 225 mins postinjection; format: ADME, organism-based, Macaca fascicularis, Caudate nucleus; settings: in vivo, 3.75 h
[47] = system: Putamen; assay: Drug uptake in anesthetized cynomolgus monkey brain putamen after 3.5 mins postinjection; format: ADME, organism-based, Macaca fascicularis; settings: in vivo
[48] = system: Thalamus; assay: Drug uptake in anesthetized cynomolgus monkey brain thalamus after 3.5 mins postinjection; format: ADME, organism-based, Macaca fascicularis; parameters: unit not given here; settings: in vivo
[49] = system: Thalamus; assay: Drug uptake in anesthetized cynomolgus monkey brain thalamus after 12.5 mins postinjection; format: ADME, organism-based, Macaca fascicularis; parameters: unit not given here; settings: in vivo
[50] = system: Thalamus; assay: Drug uptake in anesthetized cynomolgus monkey brain thalamus after 15.5 mins postinjection; format: ADME, organism-based, Macaca fascicularis; parameters: unit not given here; settings: in vivo
[51] = system: Putamen; assay: Drug uptake in anesthetized cynomolgus monkey brain putamen after 9.5 mins postinjection; format: ADME, organism-based, Macaca fascicularis; parameters: unit not given here; settings: in vivo
[52] = system: Thalamus; assay: Drug uptake in anesthetized cynomolgus monkey brain thalamus after 75 mins postinjection; format: ADME, organism-based, Macaca fascicularis; parameters: unit not given here; settings: in vivo, 1.25 h
[53] = system: Thalamus; assay: Drug uptake in anesthetized cynomolgus monkey brain thalamus after 105 mins postinjection; format: ADME, organism-based, Macaca fascicularis; parameters: unit not given here; settings: in vivo, 1.75 h
[54] = system: Thalamus; assay: Drug uptake in anesthetized cynomolgus monkey brain thalamus after 165 mins postinjection; format: ADME, organism-based, Macaca fascicularis; parameters: unit not given here; settings: in vivo, 2.75 h
[55] = system: Thalamus; assay: Drug uptake in anesthetized cynomolgus monkey brain thalamus after 225 mins postinjection; format: ADME, organism-based, Macaca fascicularis; parameters: unit not given here; settings: in vivo, 3.75 h
[56] = system: Midbrain; assay: Drug uptake in anesthetized cynomolgus monkey brain midbrain after 2.5 mins postinjection; format: ADME, organism-based, Macaca fascicularis; parameters: unit not given here; settings: in vivo
[57] = system: Midbrain; assay: Drug uptake in anesthetized cynomolgus monkey brain midbrain after 22.5 mins postinjection; format: ADME, organism-based, Macaca fascicularis; parameters: unit not given here; settings: in vivo, 0.375 h
[58] = system: Midbrain; assay: Drug uptake in anesthetized cynomolgus monkey brain midbrain after 65 mins postinjection; format: ADME, organism-based, Macaca fascicularis; parameters: unit not given here; settings: in vivo
[59] = Ratio of drug uptake in midbrain to cerebellum in anesthetized cynomolgus monkey after 27.5 mins postinjection; format: ADME, organism-based, Macaca fascicularis; settings: in vivo

## O=C(OCCC[18F])C1C2CCC(CC1c1cccc(/C=C\Br)c1)N2 (centres undefined)
[1]
  Ratio: 1.2
[2]
  Ratio: 1.7
[3]
  Drug uptake: 4.5
[4]
  Drug uptake: 4.71
[5]
  Drug uptake: 4.66
[6]
  Drug uptake: 4.16
[7]
  Drug uptake: 3.06
[8]
  Drug uptake: 3.7
[9]
  Drug uptake: 3.31
[10]
  Drug uptake: 1.97
[11]
  Ratio: 2.1
[12]
  Drug uptake: 5.03
[13]
  Drug uptake: 4.31
[14]
  Drug uptake: 3.27
[15]
  Ratio: 1
[16]
  Drug uptake: 5.18
[17]
  Drug uptake: 4.91
[18]
  Drug uptake: 4.58
[19]
  Drug uptake: 0.38
[20]
  Drug uptake: 3.6
[21]
  Drug uptake: 4.85
[22]
  Drug uptake: 4.59
[23]
  Drug uptake: 4.3
[24]
  Drug uptake: 3.84
[25]
  Drug uptake: 5.26
[26]
  Drug uptake: 5.82
[27]
  Drug uptake: 5.77
[28]
  Drug uptake: 6.29
[29]
  Drug uptake: 5.49
[30]
  Ratio: 1.2
[31]
  Drug uptake: 3.64
[32]
  Drug uptake: 0.01
[33]
  Drug uptake: 1.41
[34]
  Drug uptake: 5.72
[35]
  Drug uptake: 6.08
[36]
  Drug uptake: 5.43
[37]
  Drug uptake: 2.57
[38]
  Ratio: 1.7
[39]
  Ratio: 0.9
[40]
  Ratio: 1.5
[41]
  Drug uptake: 2.17
[42]
  Drug uptake: 4.3
[43]
  Drug uptake: 5.32
[44]
  Drug uptake: 4.01
[45]
  Drug uptake: 3.62
[46]
  Drug uptake: 3.46
[47]
  Drug uptake: 2.28
[48]
  Drug uptake: 1.89
[49]
  Drug uptake: 4.31
[50]
  Drug uptake: 4.64
[51]
  Drug uptake: 5.12
[52]
  Drug uptake: 5.33
[53]
  Drug uptake: 5.06
[54]
  Drug uptake: 4.31
[55]
  Drug uptake: 3.52
[56]
  Drug uptake: 1.48
[57]
  Drug uptake: 5.88
[58]
  Drug uptake: 6.06
[59]
  Ratio: 1.1
